Measurements as given in patent US20030105093A1, “MTP activity-lowering compositions” (priority 1998, published 2003).
Where a name gives a salt, the structure may show the parent alone.

How the values were obtained:
[1] = system: MTP (microsomal triglyceride transfer protein); experiment: MTP activity-lowering activity: liver MTP activity after 2 weeks' dosing of rats; format: in vivo; conditions: SD rats, liver homogenate, control group 9.09 ± 1.0
Method: SD rats weighing about 200 g in groups of 6 were given 20 mg or 60 mg of the hydrochloride of the amino acid of the invention in 10 ml of water in 3 divided doses daily for 2 weeks. Thereafter, the liver was excised and homogenized using a homogenizing buffer (50 mM Tris (pH 7.4), 50 mM potassium chloride, 1.5 mM EDTA, leupeptin (5 μg/ml) and 2 mM phenylmethylsulfonyl fluoride) and the homogenate was centrifuged to give a liver homogenate. This liver homogenate was adjusted to a protein concentration of about 2 mg/mL with the same homogenizing buffer and 1 part of deoxycholate solution (0.56%, pH 7.5) was added to 10 parts of the homogenate. The reaction was then carried out at 4° C. for 30 minutes, whereby MTP was liberated from the microsomal fraction. The membrane fraction was then removed by centrifugation to give a supernatant. This supernatant was diluted with Tris buffer (a buffer solution containing 15 mM Tris (pH 7.4), 40 mM NaCl, 1 mM EDTA, 0.02% NaN3) and dialyzed against the same buffer at 4° C. overnight. The dialysate thus obtained was analyzed for MTP activity by the method of J. R. Wetterau [Science, 258, 999 (1992)].

[2] = system: HepG2 cells (apo B secretion); experiment: Apo B antisecretory activity (1): apo B secreted into medium by HepG2 cells, ELISA; format: cell-based, human; conditions: for Apo B secretions (μg/well): 24 hours' culture, control group 9.92 ± 0.80
Method: HepG2 cells (100×10^4 cells/dish) were sown on 3.5 cm dishes and precultured using 1 ml DME (containing 10% FCS) medium per dish. Following this preculture, the cells were washed with DME medium twice, added to the test medium, and cultured at 37° C. under 95% air-5% carbon dioxide for 24 hours. The test medium was prepared by dissolving cycloalliin in dimethyl sulfoxide and diluted with DME medium containing 1% ESA and 0.5 mM oleic acid to a final cycloalliin concentration of 10^−6 M or 10^−4 M.
After 24 hours' culture, the medium was recovered and the amount of apo B secreted into the medium was determined by ELISA. Thus, anti-human apo B antibody (a 100-fold dilution) was distributed into a 96-well ELISA plate, 100 μL per well, and incubated at 37° C. for 2 hours. Then, 100 μL/well of Block Ace was added and the plate was further incubated at 37° C. for 2 hours. The wells were washed with PBS-Tween×3 and 100 μL each of apo B standard solution and HepG2 culture were added, followed by further incubation at 4° C. for 16 hours. After the wells were washed with PBS-Tween×3, 100 μL/well of anti-human apo B marker antibody (a 200-fold dilution) was added and the plate was incubated at 37° C. for 2 hours. The wells were washed with PBS-Tween×3, then 100 μL/well of the substrate solution was added, and the plate was incubated at 25° C. for 30 minutes. The reaction was stopped by adding 50 μL of 4.5 M H2SO4 and the absorbance at 482 nm was measured to estimate the amount of apo B secretion.

[3] = system: HepG2 cells (TG secretion); experiment: TG antisecretory activity: secreted [14C]-labeled triglyceride in HepG2 medium; format: cell-based; conditions: HepG2, 10 μM, 24 hours of culture; control group 161.2 ± 2.2
Method: HepG2 cells were cultured in DME medium supplemented with 1% BSA and 0.5 mM oleic acid for 24 hours. Then, the medium was changed to 1% BSA-DME containing 10 μM of the amino acid of the invention and simultaneously 0.5 μci of [^14C] acetic acid was added. The cells and medium were recovered after 24 hours of culture. The recovered cells were homogenized by sonication, and after quantitation of protein, the amount of secreted triglyceride (TG) was determined from the amount of labeled lipid in the medium.

[4] = 60 mg daily in 3 divided doses for 2 weeks

With C[C@H]1C[S@+]([O-])C[C@@H](C(=O)O)N1 [Cycloalliin HCl, (1S, 3R, 5S)-5-methyl-1,4-thiazane-3-carboxylic acid 1-oxide] the “MTP activity (%)” value ([1]; 20 mg daily in 3 divided doses for 2 weeks) was 6.12 ± 0.7 % and the “MTP activity (%)” value [1, 4] was 4.92 ± 1.0 %.
C[C@H]1C[S@+]([O-])C[C@@H](C(=O)O)N1 [Cycloalliin, (1S, 3R, 5S)-5-methyl-1,4-thiazane-3-carboxylic acid 1-oxide] was tested, and the “Apo B secretions (μg/well)” value ([2]; HepG2, 10^−4 M) was 7.67 ± 1.31 μg/well, the “Effect on apo B secretion (in words)” value ([2]; HepG2, 10^−6 M or 10^−4 M, 24 hours, vs control group) was “significant suppression of apo B secretion” and the “Apo B secretions (μg/well)” value ([2]; HepG2, 10^−6 M) was 7.54 ± 1.13 μg/well.
“S-methyl-L-cysteine sulfoxide [S-methyl-L-cysteine sulfoxide HCl]” was tested, and the “MTP activity (%)” value [1, 4] was 5.43 ± 0.6 %.
In the case of S-n-propyl-L-cysteine sulfoxide, the “TG secretions ([^14C] dpm × 10^−2/mg protein)” value [3] is reported as 105.8 ± 18.9 [^14C] dpm × 10^−2/mg protein.
